The text below walks through data of patent JPH07173127A, “ヒドロキサム酸誘導体およびそれを有効成分とするエラスターゼ阻害剤” (Kuraray Co Ltd, priority 1993, dated 1995).

This assay has as its target T1, human leukocyte-derived elastase [ヒト白血球由来エラスターゼ] (Homo sapiens, UniProt P08246).
T1 construct: ヒト白血球由来エラスターゼはシグマ社; purchased Sigma (USA); host or cells: human leukocytes (natural source, as the printed name says)
T1 sequence (P08246 30-247 limits assumed): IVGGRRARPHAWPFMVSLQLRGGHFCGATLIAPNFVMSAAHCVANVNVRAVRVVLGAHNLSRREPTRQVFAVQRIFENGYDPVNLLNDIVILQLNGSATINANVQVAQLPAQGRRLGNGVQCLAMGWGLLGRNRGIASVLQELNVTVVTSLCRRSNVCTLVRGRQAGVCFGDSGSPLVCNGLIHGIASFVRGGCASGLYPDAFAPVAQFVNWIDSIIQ
Kind of assay: エラスターゼ阻害試験 (elastase inhibition test, Test Example 1; fluorogenic substrate). It counts as biochemical. Conditions: 50% inhibitory concentration of elastase activity; substrate methoxysuccinyl-Ala-Ala-Pro-Val-4-methyl-coumaryl-7-amide; 0.2M Tris-HCl buffer containing 1M NaCl, pH 8.5; 35℃, 5 min incubation; fluorescence 370/460 nm.
Consider `CCOC(=O)C(CCC(C)C)(CCC(C)C)C(=O)NOCc1ccccc1` [実施例1, 2−イソペンチル−5−メチル−2−エトキシカルボニルヘキサノヒドロキサム酸ベンジルエステル], for which inhibition was half-maximal at 3 µM (IC50). `CCOC(=O)C(CCC(C)C)(CCC(C)C)C(=O)NO` [実施例2, 2−イソペンチル−5−メチル−2−エトキシカルボニルヘキサノヒドロキサム酸] registered a half-inhibitory concentration (IC50) of 1 µM.

`CC(C)CCC(CCC(C)C)C(=O)NO` [実施例4, 2−イソペンチル−5−メチルヘキサノヒドロキサム酸] came in with an IC50 of 1 µM.
